Reference: US8399425B2, “Alleviating neuropathic pain with EETs and sEH inhibitors” (The Regents of the University of California, priority 2007, dated 2013)
Entries after “also recorded” stand apart in the source; their conditions may differ.

Assays:
[1] = tested on: streptozocin induced neuropathic pain; assay: von Frey test (mechanical allodynia) in streptozocin neuropathic rats; assay type: in vivo, rat; details: for neuropathic pain, von Frey test: streptozocin (50 mg/kg iv) rats, subcutaneous, dose and time response
Description: Male Sprague-Dawley rats weighing 250-300 grains were used. Animals were individually housed at UC Davis Animal Resource Facility under standard conditions with free access to food and water, and maintained for at least 1 week before the experiments. Pain was quantified using three tests, the hind paw withdrawal latency test, the mechanical hyperalgesia test and the mechanical allodynia test. All the experiments were performed during the daytime.
Rats were first trained to the experimental chamber in two separate sessions. On the day of the induction of neuropathy, the animals' basal response to all three tests were measured and then streptozocin (50 mg/kg) was administered intravenously. Animals were then followed over time for the development of neuropathic pain. An inhibitor of sEH was administered subcutaneously one week after the onset of pain symptoms. […] Compounds were formulated by dissolving them in ethanol and mixing with trans free oleic oil. At least six animals per group were used. The Von Frey test was conducted by stimulating the plantar surface of the rats' hind paw with a calibrated filament connected to a force transducer. As this filament is applied the amount of force exerted on the paw increases and the animal withdraws its paw when the force reaches its threshold. […] In the Randal-Selitto test a similar principle is used. The animals' hind paw is placed between a flat surface and a pointed tip of a force transducer. The pointed tip exerts force on the dorsal face of the paw. […] The two tests are complementary, but depend on the activity of different groups of nociceptors.
Treatments and behavioral nociceptive tests. […] Following baseline measurements, rats were first treated with 200 μl of vehicle or compound-formulated cream by topical application to one hindpaw, LPS ([…] in 50 μl 0.9% NaCl) was injected into the plantar surface of the treated paw. For subcutaneous administration, compounds were injected immediately after intraplantar LPS. […] A probe fitted with a filament that is connected to a force transducer was applied to the plantar hind paw surface through a wire-mesh platform until eliciting a withdrawal reflex. The duration of heat application or the force (gr) necessary to elicit a withdrawal was designated as TWL and MWT. The steroidogenesis inhibitors were applied 2 hours before sEHI and LPS administration. Diabetes was induced by intravenous injection of 50 mg/kg streptozocin (STZ) in saline following baseline measurements. Diabetic animals were tested at least one week after STZ administration. Three measurements were taken from each animal at each time point and average responses were converted to percent analgesia index based on each animals' baseline response.

TSPO = target: T1, TSPO (Rattus norvegicus, UniProt P16257); assay: [3H] PK 11195 radioligand displacement from TSPO, rat heart mitochondria; assay type: binding; details: individual regioisomers compared with the mixture
T1 construct: rat heart mitochondria was isolated and incubated with; tissue CEREP (France); host or cells: rat heart mitochondria
Description: Binding studies. Radioligand binding studies were conducted by CEREP (France) according to standard procedures as described by LeFur. Briefly, rat heart mitochondria was isolated and incubated with [^3H] PK11195 at 30° C. in the presence of increasing concentrations of EET-me analogues or EET free acids. Reaction mixture was passed through glass wool filters washed 3 times using cold binding buffer and dried by air. Filter were than counted and IC50 values were calculated.

StAR mRNA = StAR mRNA expression in spinal cord and brain (qRT-PCR); assay type: in vivo, rat; details: for StAR expression in spinal cord and brain: intrathecal, alone, within 30 minutes
Description: Blood samples for chemical analysis were collected by cardiac puncture under deep isoflurane anesthesia. Plasma was immediately separated by centrifuging at 4000 rpm for 10 minutes in a cold centrifuge. Rats were then decapitated under anesthesia and tissues were removed and flash frozen in liquid nitrogen. For sampling the brain after decapitation, the scalp was first removed providing accessibility to the cranial plates. A midline incision was introduced to detach the cranial plates and brain was carefully exposed by peeling the plates. The brain was removed from the skull using a spatula, immediately placed in liquid nitrogen, and stored at −80° C. The prefrontal area was removed by a coronal cut to the distal one third of the brain from the frozen tissue. The cerebellum was also removed and the brain was hemisected. […] Plasma hormone levels were quantified using RIA. For quantitative RT-PCR, standard procedures were followed.

LPS induced hyperalgesia = assay: intraplantar LPS inflammatory pain, thermal hindpaw withdrawal latency; assay type: in vivo, rat; details: for inflammatory pain related behavior: LPS inflammation; for analgesic activity of AEPU on co-administration: 10 mg/kg dermal, co-administered with AEPU
Description: Treatments and behavioral nociceptive tests. Behavioral nociceptive testing was conducted by assessing thermal hindpaw withdrawal latencies (TWL) using a commercial Hargreaves (Hargreaves et. al […]) apparatus (IITC, Woodland Hills, Calif.), or by determining mechanical hindpaw withdrawal thresholds (MWT) using an electronic von Frey anesthesiometer (IITC, Woodland. Hills, Calif.). For […] determination, a maximum stimulus duration of 22 s was imposed to prevent tissue damage. Following baseline measurements, rats were first treated with 200 μl of vehicle or compound-formulated cream by topical application to one hindpaw, LPS ([…] in 50 μl 0.9% NaCl) was injected into the plantar surface of the treated paw. For subcutaneous administration, compounds were injected immediately after intraplantar LPS. Animals were then placed in acrylic chambers on a glass platform maintained at a temperature of 30±1° C. for measurement or on a wire-mesh platform for MWT measurements. A probe fitted with a filament that is connected to a force transducer was applied to the plantar hind paw surface through a wire-mesh platform until eliciting a withdrawal reflex. The duration of heat application or the force (gr) necessary to elicit a withdrawal was designated as TWL and MWT. The steroidogenesis inhibitors were applied 2 hours before sEHI and LPS administration. Diabetes was induced by intravenous injection of 50 mg/kg streptozocin (STZ) in saline following baseline measurements. Diabetic animals were tested at least one week after STZ administration. Three measurements were taken from each animal at each time point and average responses were converted to percent analgesia index based on each animals' baseline response.

ICER = ICER expression in spinal cord; assay type: in vivo, rat; details: LPS
Description: Blood samples for chemical analysis were collected by cardiac puncture under deep isoflurane anesthesia. Plasma was immediately separated by centrifuging at 4000 rpm for 10 minutes in a cold centrifuge. Rats were then decapitated under anesthesia and tissues were removed and flash frozen in liquid nitrogen. For sampling the brain after decapitation, the scalp was first removed providing accessibility to the cranial plates. A midline incision was introduced to detach the cranial plates and brain was carefully exposed by peeling the plates. The brain was removed from the skull using a spatula, immediately placed in liquid nitrogen, and stored at −80° C. The prefrontal area was removed by a coronal cut to the distal one third of the brain from the frozen tissue. The cerebellum was also removed and the brain was hemisected. Saggital slices with a thickness of 2 mm and weighing 100-200 mg were cut from both hemispheres lateral to the thalamus and stored to be used for qRT-PCR or chemical analysis. Plasma hormone levels were quantified using RIA. For quantitative RT-PCR, standard procedures were followed.

[2] = tested on: streptozocin induced neuropathic pain; assay: mechanical hyperalgesia test (Randal-Selitto) in streptozocin neuropathic rats; assay type: in vivo, rat
Description: Male Sprague-Dawley rats weighing 250-300 grains were used. Animals were individually housed at UC Davis Animal Resource Facility under standard conditions with free access to food and water, and maintained for at least 1 week before the experiments. Pain was quantified using three tests, the hind paw withdrawal latency test, the mechanical hyperalgesia test and the mechanical allodynia test. All the experiments were performed during the daytime. Rats were first trained to the experimental chamber in two separate sessions. On the day of the induction of neuropathy, the animals' basal response to all three tests were measured and then streptozocin (50 mg/kg) was administered intravenously. Animals were then followed over time for the development of neuropathic pain. An inhibitor of sEH was administered subcutaneously one week after the onset of pain symptoms. […] Pain response was measured at 60, 120, 240 and 480 minutes after the administration of the sEHI. Compounds were formulated by dissolving them in ethanol and mixing with trans free oleic oil. At least six animals per group were used. The Von Frey test was conducted by stimulating the plantar surface of the rats' hind paw with a calibrated filament connected to a force transducer. As this filament is applied the amount of force exerted on the paw increases and the animal withdraws its paw when the force reaches its threshold. […] In the Randal-Selitto test a similar principle is used. The animals' hind paw is placed between a flat surface and a pointed tip of a force transducer. The pointed tip exerts force on the dorsal face of the paw. […] The two tests are complementary, but depend on the activity of different groups of nociceptors.

COX-2 mRNA = assay: spinal COX-2 mRNA after intraplantar LPS; assay type: in vivo, rat; details: spinal cord

Which “neuropathic pain, von Frey test” value [1] does the source give for O=C(NC12CC3CC(CC(C3)C1)C2)N[C@H]1CC[C@H](Oc2ccc(C(=O)O)cc2)CC1 (relative stereo) [t-AUCB, trans-4-[4-(3-adamantan-1-yl-ureido)-cyclohexyloxy]-benzoic acid] here?
The value was “reduced and at higher doses eliminated”.

With CCCCC/C=C\C/C=C\C/C=C\CC1OC1CCCC(=O)OC (centres unmarked) [5,6-EET-me] as the molecule, how does the “activity on TSPO” value (TSPO) read?
Its value is “less potent than the mixture were active and more efficacious”.

CCCCC/C=C\C/C=C\CC1OC1C/C=C\CCCC(=O)OC (centres unmarked) [8,9-EET-me] was tested. Which “activity on TSPO” value (TSPO) did it give?
The value was “completely lacked activity”.

How did the “StAR expression in spinal cord and brain” value (StAR mRNA) turn out when Nc1ncnc2c1nc(Br)n2[C@@H]1O[C@@H]2COP(=O)(O)O[C@H]2[C@H]1O [8-Br cAMP, reference compound] was run?
The value was “did not change”.

For CCCCCC1OC1C/C=C\C/C=C\C/C=C\CCCC(=O)OC (centres unmarked) [14,15-EET-me], which “activity on TSPO” value (TSPO) is on record?
The value was “less potent than the mixture were active and more efficacious”.

Which “paw withdrawal latency in response to a mild heat stimulus” value (LPS induced hyperalgesia; 50 mg/kg dermally, intraplantar LPS) does the source give for CCOCCOCCOCCCCCNC(=O)NC12CC3CC(CC(C3)C1)C2 [AEPU, Adamantan-1-yl-3-{5-[2-(2-ethoxyethoxy)ethoxy]pentyl}urea] here?
The value was “transiently increased the paw withdrawal latency”.

And the “inflammatory pain related behavior” value (LPS induced hyperalgesia)?
Its value is “had a transient effect on pain however remained analgesic”.

And the “StAR message in the brain” value (StAR mRNA; compound alone)?
The value was “neither local inflammation nor AEPU alone elicited an increase”.

And the “StAR message in the brain” value (StAR mRNA; inflamed animals treated with compound)?
Its value is “two fold increase”.

What about the “StAR mRNA in the brain” value (StAR mRNA; intrathecal with 8-Br cAMP (100 μg), 30 min) of the same molecule?
The value was “elicited a parallel increase in the brain”.

And the “StAR expression in the spinal cord” value (StAR mRNA; intrathecal with 8-Br cAMP (100 μg), 30 min, EETs 5 μg, AEPU 1 μg)?
The value was “increased the expression level of StAR in the spinal cord”.

And the “StAR expression in spinal cord and brain” value (StAR mRNA)?
The value was “did not change”.

And the “increase in ICER message” value (ICER)?
The value was “up to 3 fold”.

Which results are given for O=C(O)CCCCCCCCCCCNC(=O)NC12CC3CC(CC(C3)C1)C2 [AUDA, 12-(3-Adamantan-1-yl-ureido)dodecanoic acid]?
decrease in withdrawal threshold ([1]; moderate dose): completely reversed the decrease in withdrawal threshold; pain scores of diabetic rats ([1]; neuropathic pain model): dose and time dependent improvement in pain scores; duration of effect ([1]; rat, in vivo): lost its effect after four hours; neuropathic pain, von Frey test [1]: reduced neuropathic pain in a dose and time dependant manner; pain, mechanical hyperalgesia test (FIG. 3) ([2]; 10, 20 and 50 mg/kg): reduced pain in a time and dose dependant; mechanical allodynia induced by diabetic neuropathy (FIG. 3 legend) ([2]; compound 1010 at equivalent dose): reversed

What does the source list for CC(=O)N1CCC(NC(=O)Nc2ccc(OC(F)(F)F)cc2)CC1 [TPAU]?
analgesic potency compared with morphine (LPS induced hyperalgesia; 10 mg/kg vs morphine 1 mg/kg): potency strikingly comparable to that of a moderate dose of morphine; inflammatory pain related behavior (LPS induced hyperalgesia): particularly more effective; also recorded: substantially reduced hyperalgesia; response to stimuli, motor activity (LPS induced hyperalgesia; treated animals): no reduction in response to stimuli or gross signs of loss of motor activity; neuropathic pain, von Frey test [1]: reduced and at higher doses eliminated; spinal COX-2 mRNA increase (COX-2 mRNA): particularly more effective

With CCC1(c2ccc(N)cc2)CCC(=O)NC1=O (centres unmarked) [aminoglutethimide, reference compound] as the molecule, how does the “analgesic activity of AEPU on co-administration” value (LPS induced hyperalgesia) read?
Its value is “completely abolished”.

How did the “analgesic activity of AEPU on co-administration” value (LPS induced hyperalgesia) turn out when CC(C)(C)NC(=O)[C@H]1CC[C@H]2[C@@H]3CC[C@H]4NC(=O)C=C[C@]4(C)[C@H]3CC[C@]12C [finasteride, reference compound] was run?
Its value is “completely abolished”.
